Key:
CYP3A4 = CYP3A4 (Homo sapiens, UniProt P08684); test: CYP450 panel inhibition, CYP3A4; conditions: human liver microsomes, pH 7.4, probe testosterone
MMP-13 [1] = target: T1, MMP-13 (Homo sapiens, UniProt P45452); test: Cartilage explant assay; assay type: biochemical; conditions: read-out: inhibition of cartilage degradation
MMP-13 [2] = target: T1, MMP-13; test: Dual inhibition kinetics; assay type: biochemical
MMP-1 = conditions: read-out: IC50 MMP-1; antitarget selectivity; cited from earlier work
caspase 5 = target: T2, caspase 5 (Homo sapiens, UniProt P51878); test: Protease profiling panel, caspase 5; assay type: biochemical; conditions: 20 μM to 0.1 nM range
T2 sequence (P51878 138-434 limits assumed): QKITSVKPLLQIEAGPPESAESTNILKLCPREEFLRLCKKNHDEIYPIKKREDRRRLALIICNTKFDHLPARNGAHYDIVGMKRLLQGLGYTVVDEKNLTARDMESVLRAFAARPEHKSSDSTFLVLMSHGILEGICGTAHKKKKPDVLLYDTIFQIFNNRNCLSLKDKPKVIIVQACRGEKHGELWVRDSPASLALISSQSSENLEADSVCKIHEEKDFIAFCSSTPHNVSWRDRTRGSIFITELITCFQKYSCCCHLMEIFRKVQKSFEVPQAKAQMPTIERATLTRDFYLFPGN

cathepsin K = target: T3, cathepsin K (Homo sapiens, UniProt P43235); test: Protease profiling panel, cathepsin K; assay type: biochemical; conditions: read-out: highest inhibitory activity against cathepsin K
T3 sequence (P43235 115-329): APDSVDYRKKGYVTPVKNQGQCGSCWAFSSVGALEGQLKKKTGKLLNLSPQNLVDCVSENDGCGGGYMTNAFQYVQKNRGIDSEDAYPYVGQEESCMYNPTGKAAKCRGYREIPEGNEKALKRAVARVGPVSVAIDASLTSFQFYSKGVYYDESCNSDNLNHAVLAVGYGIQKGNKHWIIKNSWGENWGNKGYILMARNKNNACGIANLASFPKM

MMP-8 = conditions: read-out: IC50 MMP-8; antitarget selectivity; cited from earlier work
MMP-13 [3] = target: T1, MMP-13; test: Single inhibitor kinetics, MMP-13 hydrolysis of fTHP-15; assay type: biochemical

Sequence of CYP3A4 (P08684 whole entry): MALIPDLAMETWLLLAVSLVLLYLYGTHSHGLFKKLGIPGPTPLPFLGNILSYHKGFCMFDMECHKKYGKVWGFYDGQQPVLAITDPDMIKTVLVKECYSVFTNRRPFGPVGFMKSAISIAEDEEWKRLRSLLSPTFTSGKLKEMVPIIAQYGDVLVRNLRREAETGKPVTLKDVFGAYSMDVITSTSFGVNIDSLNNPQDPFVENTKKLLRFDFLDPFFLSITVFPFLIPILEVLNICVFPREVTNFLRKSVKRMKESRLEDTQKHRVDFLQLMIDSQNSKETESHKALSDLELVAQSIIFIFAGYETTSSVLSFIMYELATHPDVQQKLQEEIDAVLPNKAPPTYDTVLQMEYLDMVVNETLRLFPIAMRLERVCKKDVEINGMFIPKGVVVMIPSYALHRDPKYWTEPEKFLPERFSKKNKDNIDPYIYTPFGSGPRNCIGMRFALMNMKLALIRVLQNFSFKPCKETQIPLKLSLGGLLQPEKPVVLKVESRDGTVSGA

Oc1nc(SCc2ccc(Cl)cc2)nc2c1CCC2 [Compound 1]
inhibition at 20 µM (CYP3A4): 14%
inhibition at 10 µM (MMP-13 [1]): 69 ± 17%
B value (Yonetani–Theorell) (MMP-13 [2]; 1 (0–2 μM) in combination with 6 (AHA, 0–1.25 mM), B<1 = synergistic binding): < 1
B value (Yonetani–Theorell) (MMP-13 [2]; 1 in combination with 4, B<1 = positive cooperativity): < 1
B value (Yonetani–Theorell) (MMP-13 [2]; 1 in combination with 5, B<1 = synergistic binding): < 1

Cc1ccc(CSc2nc(O)c3c(n2)CCC3)cc1 [Compound 2]
inhibition at 20 µM (CYP3A4): 20%
IC50 (MMP-1): > 40 µM
activity against caspase 5 on inspection of dose response (caspase 5): artifactual
inhibition at 20 µM (cathepsin K): 20%
IC50 (MMP-8): > 40 µM

COC(=O)c1ccc(CSc2nc3c(c(=O)[nH]2)CCC3)cc1 [Compound 3]
IC50 (MMP-1): > 40 µM
IC50 (MMP-8): > 40 µM

CC(=O)NO [Compound 6, N-hydroxyacetamide]
pKi (MMP-13 [3]; from fTHP-15 Ki): 2.9
Ki (MMP-13 [3]; read-out: fTHP-15 Ki, fTHP-15 substrate, mixed inhibition model, nonlinear regression): 1190 µM

Source: paper PMC4255739 (Journal of Medicinal Chemistry, 2014)
